Source: patent publication US4904659A, “Substituted quinoline derivatives and pharmaceutical compositions thereof” (Development Finance Corporation of New Zeland, priority 1985, dated 1990)
Like-named read-outs stand apart in the source and are kept apart here.

Columns and labels:
[1] = test system: L1210 leukemia cells; assay: Growth inhibition of cultured L1210 leukemia cells (70 h, counted cell numbers); assay type: cell-based; conditions: Mus musculus, read-out: In vitro L1210 (IC50)
[2] = Rm: lipophilic-hydrophilic balance from reversed phase partition chromatography; assay type: physicochemical; conditions: linearly related to 1-octanol/water partition coefficients
Excerpt: Rm-a measure of the compound's liphophilic-hydrophilic balance from reversed phase partition chromatography. Rm is linearly related to partition coefficients obtained in the 1-octanol/water system.

[3] = test system: Lewis lung carcinoma; assay: In vivo antitumour activity against Lewis lung carcinoma (cells inoculated intravenously); design: species or system mice (F1 hybrids of DBA/2J male x C57BL/6J female); conditions: for LL in vivo ILS (percentage increase in lifespan) / LL in vivo Active: Lewis lung carcinoma; for LL in vivo ILS (percentage increase in lifespan): at optimal dose (OD), intraperitoneal, days 1, 5 and 9, control survival 17 days; for LL in vivo Active: at the stated dose, ILS greater than 40% significant; for LL in vivo number of long-term survivors: number in parentheses after ILS, out of a group of 6, Lewis lung carcinoma
Procedure: (§1) OD--The optimal drug dose (in milligrams per kilogram), administered intraperitoneally as a solution in 0.1 ml of 30% v/v ethyl alcohol in water on days 1, 5 and 9 after tumour inoculation. The drug is administered as a soluble acid addition salt.
(§2) ILSmax--The percentage increase in lifespan of treated animals over that of control animals injected with tumour alone. The average survival of control mice was 11 days (for P388 leukemia) and 17 days (for Lewis lung carcinoma) ILS values greater than 20% (P388 leukemia) and 40% (Lewis lung carcinoma) are considered statistically significant. Numbers in parentheses after ILS values indicate the number of long-term survivors (out of a group of 6).
(§3) Y--Implies a significant value of drug activity at the stated dose.
(§4) N--Implies no statistically significant activity.
LL--Is the Lewis lung carcinoma.
(§5) Both of these tumour lines were obtained as frozen cell stocks from Mason Research Inc., USA and are passaged intraperitoneally in DBA/25 mice of either sex (P388) or subcutaneously in C57BL/65 mice of either sex (LL) according to the standard methods (Cancer Chemother. Reports., 3, Part 3, p9, 1972).
(§6) Groups of six mice (F1 hybrids of DBA/2J male x C57BL/6J female) were injected intraperitoneally (P388) or intravenously (tail vein, LL), with 10^6 tumour cells on day 0. When given in this manner, P388 cells grow diffusely in the peritoneal cavity, whereas the Lewis lung cells from distinct solid tumour nodules in the lungs. Antitumour activity is determined by published methods (European J. Cancer, 19, pp.1607-1613, 1983).

[4] = test system: P388 leukemia; assay: In vivo antitumour activity against P388 leukemia (cells inoculated intraperitoneally); design: species or system mice (F1 hybrids of DBA/2J male x C57BL/6J female); conditions: for P388 in vivo ILS (percentage increase in lifespan) / P388 in vivo Active: P388 leukemia; for P388 in vivo ILS (percentage increase in lifespan): at optimal dose (OD), intraperitoneal, days 1, 5 and 9, control survival 11 days; for P388 in vivo Active: at the stated dose, ILS greater than 20% significant; for P388 in vivo number of long-term survivors: number in parentheses after ILS, out of a group of 6, P388 leukemia
Procedure: as §1, §2, §3, §4, §5, §6

[5] = test system: bacterial cell lines; assay: In vitro antibacterial activity; assay type: cell-based; conditions: a number of bacterial cell lines
[6] = L1210 leukemia cells, 70 h, cell numbers reduced to 50% of controls

Row | Compound | IC50 [1, 6] [µM] | chromatographic logP [2] | LL in vivo ILS (percentage increase in lifespan) [3] [%] | LL in vivo Active [3] | P388 in vivo ILS (percentage increase in lifespan) [4] [%] | P388 in vivo Active [4] | P388 in vivo number of long-term survivors [4] | antibacterial activity [5] | IC50 ([1]; L1210, 70 h) [µM] | LL in vivo number of long-term survivors [3]
1 | CN(C)CCNC(=O)c1cccc2ccc(-c3ccccn3)nc12 [Compound 7] | 1.64 | -1.43 | 91 | Y (Implies a significant value of drug activity at the stated dose) | 73 | Y (Implies a significant value of drug activity at the stated dose) | 3 | – | – | –
2 | CN(C)CCNC(=O)c1cccc2ccc(-c3cccc(Cl)c3)nc12 [Compound 10] | 1.2 | 0.05 | < 40 | N (Implies no statistically significant activity) | 40 | Y (Implies a significant value of drug activity at the stated dose) | – | – | – | –
3 | CN(C)CCNC(=O)c1cccc2ccc(-c3ccccc3)nc12 [Compound 1] | – | -0.01 | 70 | Y (Implies a significant value of drug activity at the stated dose) | 91 | Y (Implies a significant value of drug activity at the stated dose) | – | show in vitro activity against a number of bacterial cell lines | 1.3 | 4
4 | CN(C)CCNC(=O)c1cccc2ccc(-c3ccncc3)nc12 [Compound 12] | 0.17 | -0.87 | 132 | Y (Implies a significant value of drug activity at the stated dose) | 145 | Y (Implies a significant value of drug activity at the stated dose) | 2 | show in vitro activity against a number of bacterial cell lines | – | 3
